Test results published in US20190262457A1, “NOVEL ALKYLATING AGENT” (CHIBA-PREFECTURE, priority 2016, published 2019).

Tests used:
RKO cells = test: Cytotoxicity and IC50 comparison with CBI by WST assay, 48 hours; type: cell-based, human; conditions: WST-8
Procedure: (§1) From the cell lines mentioned above, a large intestine cancer cell line SW480 was used as cells expressing PD-1, and a large intestine cancer cell line RKO was used as cells expressing PD-L1. An experiment was conducted to compare toxicity and IC50 between the PIP-drug conjugate compound CCC07-01 and the alkylating agent CBI used as a drug conjugate therein. The cells of each line were inoculated at 3000 cells/well to a 96-well microplate and cultured overnight. On the next day, the cells were treated with the PIP-CBI conjugate (CCC07-01) or CBI having a concentration of 0.1, 1, 10, 30, 100, 300, or 1000 nM (1 μM) for 48 hours. Then, WST-8 reagent was added to each well using Cell counting kit-8, and the mixture was reacted for 2 hours. Then, the cell count was calculated at a wavelength of 450 nm by the colorimetric analysis method using a microplate reader. The method for calculating the cell count involved: 1) obtaining the mean value of a medium alone, 2) subtracting the mean value of the medium from each well, 3) obtaining the mean value of DMSO, 4) dividing the medium mean value-subtracted value by the mean value of DMSO and then multiplying by 100, and 5) obtaining the mean value of each treatment group and a standard deviation, and preparing a graph. IC50 was calculated according to the following expression: IC50=10(LOG(A/B)×(50−C)/(D−C)+LOG(B) wherein A: a higher concentration of two concentrations sandwiching 50%, B: a lower concentration of two concentrations sandwiching 50%, C: the rate of inhibition at B, and D: the rate of inhibition at A.

SW480 cells = test: as above; type: cell-based, human; conditions: WST-8
Procedure: as §1

CTLA-4 gene = test: Experiment to silence CTLA-4 gene (semi-quantitative RT-PCR), CCC07-01; type: cell-based, human; conditions: A2058 cells, 10 nM, 24 hours
Procedure: A2058 or MIA PaCa-2 cells were cultured in a 6-well plate. On the next day, the cells were treated with 0, 1, or 10 nM CCC07-01 for 24 hours. The cells were collected, and total RNA was extracted therefrom. The extraction employed RNeasy Plus Mini Kit (Qiagen N.V., CA). Next, cDNA was prepared by reverse transcription with the extracted RNA as a template according to Super Script VILO cDNA Synthesis kit (Invitrogen Corp., CA). RT-PCR was performed with the cDNA as a template under the following conditions: the conditions involved denaturation at 95° C. for 2 minutes and then 33 cycles each involving 95° C. for 30 seconds, 60° C. for 30 seconds, and 72° C. for 30 seconds, followed by elongation reaction at 72° C. for 5 minutes. For a control, RT-PCR of GAPDH was performed using the same cDNA as above. The conditions for GAPDH involved denaturation at 95° C. for 2 minutes and then 22 cycles each involving 95° C. for 30 seconds, 55° C. for 30 seconds, and 72° C. for 30 seconds, followed by elongation reaction at 72° C. for 5 minutes. Each PCR product was electrophoresed on 2% agarose and then stained with ethidium bromide. The concentration of the band of the PCR product of CTLA-4 was calculated with the GAPDH band as a control using Image J. The concentrations of the PCR products for each concentration of PIP were compared for quantification.

PD-L1 gene = test: Experiment to silence PD-L1 gene (RT-PCR / real-time PCR), CCC07-01; type: cell-based, human; conditions: RKO cells, 10 nM, 24 hours
Procedure: RKO cells were cultured in a 6-well plate. On the next day, the cells were treated with 0, 1, 10, or 100 nM CCC07-01 for 24 hours. The cells were collected, and total RNA was extracted therefrom. The extraction employed RNeasy Plus Mini Kit (Qiagen N.V., CA). Next, cDNA was prepared by reverse transcription with the extracted RNA as a template according to Super Script VILO cDNA Synthesis kit (Invitrogen Corp., CA). RT-PCR was performed with the cDNA as a template under the following conditions: the conditions for PD-L1 involved denaturation at 95° C. and then 25 cycles each involving 95° C. for 30 seconds, 60° C. for 30 seconds, and 72° C. for 30 seconds, followed by elongation reaction at 72° C. for 5 minutes. For a control, RT-PCR of GAPDH was performed using the same cDNA as above. The conditions for GAPDH involved denaturation at 95° C. and then 22 cycles each involving 95° C. for 30 seconds, 55° C. for 30 seconds, and 72° C. for 30 seconds, followed by elongation reaction at 72° C. for 5 minutes.
Each RT-PCR product was electrophoresed on 2% agarose and then stained with ethidium bromide. qPCR was further performed. […] A relative expression level was quantified with GAPDH as a control.

[1] = system: subcutaneously transplanted RKO tumor; test: Tumor volume in RKO-transplanted humanized NSG mice; type: in vivo; conditions: humanized NSG mouse
Procedure: 1×10^7 cells of human PBMC (Precision Bioservices Inc.) were intravenously transplanted to each NSG mouse (NOD.Cg-Prkdc^scidI/2rg^tm1Wj1/SzJ; Charles River Laboratories Japan, Inc.) to prepare a humanized NSG mouse. One week after the PBMC transplantation, 1×10^7 RKO cells (ATCC) were subcutaneously transplanted to each humanized NSG mouse. After the transplantation, CCC07-01 was intravenously administered at 2.3 or 9.2 mg/kg to the mouse when tumorigenesis was able to be confirmed. The tumor size was measured over time, and the tumor volume (mm^3) was calculated according to the expression: Tumor volume=[…]. One week after the CCC07-01 administration, the spleen was harvested and homogenized in 2% FBS/PBS to prepare a cell suspension. The spleen cells were stained with a fluorescently labeled anti-human CD4 antibody, anti-human CD8 antibody and anti-human Foxp3 antibody and analyzed for the numbers of cytotoxic T cells (CD8-positive cells) and regulatory T cells (Treg: CD4-positive and Foxp3-positive cells) using a flow cytometer. Statistical processing was performed by the Mann-Whitney U test, and the significance level was set to P<0.05.

Structure (SMILES): CC(=O)Nc1cn(C)c(C(=O)Nc2cc(C(=O)Nc3cn(C)c(C(=O)Nc4cn(C)c(C(=O)NCCC(=O)Nc5cc(C(=O)Nc6cc(C(=O)NCCCC(=O)Nc7cc(C(=O)Nc8cn(C)c(C(=O)NCCC(=O)Nc9cc(C(=O)Nc%10cc(C(=O)Nc%11ccc%12[nH]c(C(=O)N%13CC(CCl)c%14c%13cc(O)c%13ccccc%14%13)cc%12c%11)n(C)c%10)n(C)c9)n8)n(C)c7)n(C)c6)n(C)c5)n4)n3)n(C)c2)n1 (stereo not drawn) [CCC07-01]
- IC50 (RKO cells): 4 nM
- IC50 (SW480 cells): 11 nM
- expression of CTLA-4 (CTLA-4 gene): markedly decreased
- expression of PD-L1 (PD-L1 gene): markedly decreased
- T/C ratio ([1]; 2.3 mg/kg intravenous): 56.0%
- T/C ratio ([1]; 9.2 mg/kg intravenous): 41.5%
